Assays:
[1] = Turbidity test of surfactin solutions with alkaline earth metal, judged visually after storage; format: physicochemical; parameters: key: -: Not turbid; ±: Slightly turbid; +: Turbid; conditions: 40°C for 7 days
Method: (§1) Samples were prepared by dissolving surfactin sodium salt in a concentration of 0 or 0.2% and calcium chloride dihydrate in a calcium concentration of 0, 10, or 20 ppm in each of solvents described below, and each solution was charged in a screw vial and sealed, which was then left to stand at 40°C for 7 days. After 7 days, the turbidity of each sample was judged visually.
as §1, with “dissolving 0.2%” for “dissolving”, “salt” for “salt in a concentration of 0 or 0.2%”, “magnesium” for “calcium”
(§2) Samples were prepared by dissolving 0.2% surfactin sodium salt and calcium chloride dihydrate in a calcium concentration of 0.1, 1, or 10 ppm in the solvent described below and further disodium edetate was added in an amount of 0, 0.0001, 0.001, 0.01, 0.1, 0.2, 1, or 3%, respectively. Then, each solution was charged in a screw vial and sealed, which was then left to stand at 40°C for 7 days. After 7 days, the turbidity of each sample was judged visually. […]
as §2, with “sodium citrate” for “disodium edetate”

[2] = as above; format: physicochemical; parameters: key: -: Not turbid; +: Turbid; conditions: 40°C for 7 days
Method: as §1
as §1, with “dissolving 0.2%” for “dissolving”, “salt” for “salt in a concentration of 0 or 0.2%”, “magnesium” for “calcium”
as §2
as §2, with “sodium citrate” for “disodium edetate”

[3] = test system: three-dimensional skin model; experiment: Skin irritation test: MTT cytotoxicity on three-dimensional cultured skin model; format: cell-based; conditions: test substance in PBS pH 7, 1 hour exposure, 16 hours incubation, read from graph
Method: Using a three-dimensional skin model (trade name: Three-dimensional cultured skin model, manufactured by Gunze), skin irritation tests were performed. […] The test substances were adjusted with PBS (Phosphate Buffer Saline, pH 7) so that they were in various concentrations. To the thus-adjusted test substances was exposed the skin model for 1 hour. Thereafter, the test substances were washed and incubated for 16 hours in a medium attached to the above-described three-dimensional skin model. After the incubation, a solution of MTT (3-(4,5-dimethylthiazol-2-yl)-2,5-diphenyltetrazolium bromide) was added and pigments were extracted with isopropanol rendered acidic with hydrochloric acid, followed by measurement of absorbance at a wavelength of 570 nm. […] This value was called B. The MTT solution was added to PBS and extraction was performed similarly. Absorbance of the extract measured at a wavelength of 570 nm was named C. From these values was calculated cytotoxicity. Calculation was made according to the following equation. Cytotoxicity (%) = (1-(A-c)/(B-C)) x 100 [formula]
Plotting the concentration of a test substance on the axis of abscissa and cytotoxicity on the axis of ordinate, a graph was obtained, from which the concentration of a test compound at 50% cytotoxicity was read.

[4] = Surface tension test (plate method); format: physicochemical; conditions: 0.1 wt% in water, 25°C
Method: The dried medium preparation and purified surfactin sodium salt were each dissolved in water in an amount of 0.1 wt% and their ability of decreasing surface tension was tested. […]

Substance: surfactin sodium salt
- turbidity ([1]; 0.2% surfactin sodium salt in Solvent 2 (7% Ethanol, 93% deionized water), magnesium 10 ppm): ±
- turbidity ([1]; 0.2% surfactin sodium salt in Solvent 2 (7% Ethanol, 93% deionized water), magnesium 20 ppm): ±
- turbidity ([1]; 0.2% surfactin sodium salt in Solvent 3 (7% Ethanol, 5% glycerin, 5% 1,3-butylene glycol, 83% deionized water), magnesium 10 ppm): ±
- turbidity ([1]; 0.2% surfactin sodium salt in Solvent 3 (7% Ethanol, 5% glycerin, 5% 1,3-butylene glycol, 83% deionized water), magnesium 20 ppm): ±
- turbidity ([1]; 0.2% surfactin sodium salt, sodium citrate 0.0001%, calcium 1 ppm, solvent 7% Ethanol, 5% glycerin, 5% 1,3-butylene glycol, 83% deionized water): ±
- turbidity ([1]; 0.2% surfactin sodium salt, sodium edetate 0.0001%, calcium 1 ppm, solvent 7% Ethanol, 5% glycerin, 5% 1,3-butylene glycol, 83% deionized water): ±
- turbidity ([2]; 0.2% surfactin sodium salt in Solvent 1 (deionized water), magnesium 0 ppm): -
- turbidity ([2]; 0.2% surfactin sodium salt in Solvent 1 (deionized water), magnesium 10 ppm): +
- turbidity ([2]; 0.2% surfactin sodium salt in Solvent 1 (deionized water), magnesium 20 ppm): +
- turbidity ([2]; 0.2% surfactin sodium salt in Solvent 2 (7% Ethanol, 93% deionized water), magnesium 0 ppm): -
- turbidity ([2]; 0.2% surfactin sodium salt in Solvent 3 (7% Ethanol, 5% glycerin, 5% 1,3-butylene glycol, 83% deionized water), magnesium 0 ppm): -
- turbidity ([2]; 0.2% surfactin sodium salt, sodium citrate 0%, calcium 0.1 ppm, solvent 7% Ethanol, 5% glycerin, 5% 1,3-butylene glycol, 83% deionized water): -
- turbidity ([2]; 0.2% surfactin sodium salt, sodium citrate 0%, calcium 1 ppm, solvent 7% Ethanol, 5% glycerin, 5% 1,3-butylene glycol, 83% deionized water): +
- turbidity ([2]; 0.2% surfactin sodium salt, sodium citrate 0%, calcium 10 ppm, solvent 7% Ethanol, 5% glycerin, 5% 1,3-butylene glycol, 83% deionized water): +
- turbidity ([2]; 0.2% surfactin sodium salt, sodium citrate 0.0001%, calcium 0.1 ppm, solvent 7% Ethanol, 5% glycerin, 5% 1,3-butylene glycol, 83% deionized water): -
- turbidity ([2]; 0.2% surfactin sodium salt, sodium citrate 0.0001%, calcium 10 ppm, solvent 7% Ethanol, 5% glycerin, 5% 1,3-butylene glycol, 83% deionized water): +
- turbidity ([2]; 0.2% surfactin sodium salt, sodium citrate 0.001%, calcium 0.1 ppm, solvent 7% Ethanol, 5% glycerin, 5% 1,3-butylene glycol, 83% deionized water): -
- turbidity ([2]; 0.2% surfactin sodium salt, sodium citrate 0.001%, calcium 1 ppm, solvent 7% Ethanol, 5% glycerin, 5% 1,3-butylene glycol, 83% deionized water): -
- turbidity ([2]; 0.2% surfactin sodium salt, sodium citrate 0.001%, calcium 10 ppm, solvent 7% Ethanol, 5% glycerin, 5% 1,3-butylene glycol, 83% deionized water): +
- turbidity ([2]; 0.2% surfactin sodium salt, sodium citrate 0.01%, calcium 0.1 ppm, solvent 7% Ethanol, 5% glycerin, 5% 1,3-butylene glycol, 83% deionized water): -
- turbidity ([2]; 0.2% surfactin sodium salt, sodium citrate 0.01%, calcium 1 ppm, solvent 7% Ethanol, 5% glycerin, 5% 1,3-butylene glycol, 83% deionized water): -
- turbidity ([2]; 0.2% surfactin sodium salt, sodium citrate 0.01%, calcium 10 ppm, solvent 7% Ethanol, 5% glycerin, 5% 1,3-butylene glycol, 83% deionized water): -
- turbidity ([2]; 0.2% surfactin sodium salt, sodium citrate 0.1%, calcium 0.1 ppm, solvent 7% Ethanol, 5% glycerin, 5% 1,3-butylene glycol, 83% deionized water): -
- turbidity ([2]; 0.2% surfactin sodium salt, sodium citrate 0.1%, calcium 1 ppm, solvent 7% Ethanol, 5% glycerin, 5% 1,3-butylene glycol, 83% deionized water): -
- turbidity ([2]; 0.2% surfactin sodium salt, sodium citrate 0.1%, calcium 10 ppm, solvent 7% Ethanol, 5% glycerin, 5% 1,3-butylene glycol, 83% deionized water): -
- turbidity ([2]; 0.2% surfactin sodium salt, sodium citrate 0.2%, calcium 0.1 ppm, solvent 7% Ethanol, 5% glycerin, 5% 1,3-butylene glycol, 83% deionized water): -
- turbidity ([2]; 0.2% surfactin sodium salt, sodium citrate 0.2%, calcium 1 ppm, solvent 7% Ethanol, 5% glycerin, 5% 1,3-butylene glycol, 83% deionized water): -
- turbidity ([2]; 0.2% surfactin sodium salt, sodium citrate 0.2%, calcium 10 ppm, solvent 7% Ethanol, 5% glycerin, 5% 1,3-butylene glycol, 83% deionized water): -
- turbidity ([2]; 0.2% surfactin sodium salt, sodium citrate 1%, calcium 0.1 ppm, solvent 7% Ethanol, 5% glycerin, 5% 1,3-butylene glycol, 83% deionized water): -
- turbidity ([2]; 0.2% surfactin sodium salt, sodium citrate 1%, calcium 1 ppm, solvent 7% Ethanol, 5% glycerin, 5% 1,3-butylene glycol, 83% deionized water): -
- turbidity ([2]; 0.2% surfactin sodium salt, sodium citrate 1%, calcium 10 ppm, solvent 7% Ethanol, 5% glycerin, 5% 1,3-butylene glycol, 83% deionized water): -
- turbidity ([2]; 0.2% surfactin sodium salt, sodium citrate 3%, calcium 0.1 ppm, solvent 7% Ethanol, 5% glycerin, 5% 1,3-butylene glycol, 83% deionized water): -
- turbidity ([2]; 0.2% surfactin sodium salt, sodium citrate 3%, calcium 1 ppm, solvent 7% Ethanol, 5% glycerin, 5% 1,3-butylene glycol, 83% deionized water): -
- turbidity ([2]; 0.2% surfactin sodium salt, sodium citrate 3%, calcium 10 ppm, solvent 7% Ethanol, 5% glycerin, 5% 1,3-butylene glycol, 83% deionized water): -
- turbidity ([2]; 0.2% surfactin sodium salt, sodium edetate 0%, calcium 0.1 ppm, solvent 7% Ethanol, 5% glycerin, 5% 1,3-butylene glycol, 83% deionized water): -
- turbidity ([2]; 0.2% surfactin sodium salt, sodium edetate 0%, calcium 1 ppm, solvent 7% Ethanol, 5% glycerin, 5% 1,3-butylene glycol, 83% deionized water): +
- turbidity ([2]; 0.2% surfactin sodium salt, sodium edetate 0%, calcium 10 ppm, solvent 7% Ethanol, 5% glycerin, 5% 1,3-butylene glycol, 83% deionized water): +
- turbidity ([2]; 0.2% surfactin sodium salt, sodium edetate 0.0001%, calcium 0.1 ppm, solvent 7% Ethanol, 5% glycerin, 5% 1,3-butylene glycol, 83% deionized water): -
- turbidity ([2]; 0.2% surfactin sodium salt, sodium edetate 0.0001%, calcium 10 ppm, solvent 7% Ethanol, 5% glycerin, 5% 1,3-butylene glycol, 83% deionized water): +
- turbidity ([2]; 0.2% surfactin sodium salt, sodium edetate 0.001%, calcium 0.1 ppm, solvent 7% Ethanol, 5% glycerin, 5% 1,3-butylene glycol, 83% deionized water): -
- turbidity ([2]; 0.2% surfactin sodium salt, sodium edetate 0.001%, calcium 1 ppm, solvent 7% Ethanol, 5% glycerin, 5% 1,3-butylene glycol, 83% deionized water): -
- turbidity ([2]; 0.2% surfactin sodium salt, sodium edetate 0.001%, calcium 10 ppm, solvent 7% Ethanol, 5% glycerin, 5% 1,3-butylene glycol, 83% deionized water): +
- turbidity ([2]; 0.2% surfactin sodium salt, sodium edetate 0.01%, calcium 0.1 ppm, solvent 7% Ethanol, 5% glycerin, 5% 1,3-butylene glycol, 83% deionized water): -
- turbidity ([2]; 0.2% surfactin sodium salt, sodium edetate 0.01%, calcium 1 ppm, solvent 7% Ethanol, 5% glycerin, 5% 1,3-butylene glycol, 83% deionized water): -
- turbidity ([2]; 0.2% surfactin sodium salt, sodium edetate 0.01%, calcium 10 ppm, solvent 7% Ethanol, 5% glycerin, 5% 1,3-butylene glycol, 83% deionized water): -
- turbidity ([2]; 0.2% surfactin sodium salt, sodium edetate 0.1%, calcium 0.1 ppm, solvent 7% Ethanol, 5% glycerin, 5% 1,3-butylene glycol, 83% deionized water): -
- turbidity ([2]; 0.2% surfactin sodium salt, sodium edetate 0.1%, calcium 1 ppm, solvent 7% Ethanol, 5% glycerin, 5% 1,3-butylene glycol, 83% deionized water): -
- turbidity ([2]; 0.2% surfactin sodium salt, sodium edetate 0.1%, calcium 10 ppm, solvent 7% Ethanol, 5% glycerin, 5% 1,3-butylene glycol, 83% deionized water): -
- turbidity ([2]; 0.2% surfactin sodium salt, sodium edetate 0.2%, calcium 0.1 ppm, solvent 7% Ethanol, 5% glycerin, 5% 1,3-butylene glycol, 83% deionized water): -
- turbidity ([2]; 0.2% surfactin sodium salt, sodium edetate 0.2%, calcium 1 ppm, solvent 7% Ethanol, 5% glycerin, 5% 1,3-butylene glycol, 83% deionized water): -
- turbidity ([2]; 0.2% surfactin sodium salt, sodium edetate 0.2%, calcium 10 ppm, solvent 7% Ethanol, 5% glycerin, 5% 1,3-butylene glycol, 83% deionized water): -
- turbidity ([2]; 0.2% surfactin sodium salt, sodium edetate 1%, calcium 0.1 ppm, solvent 7% Ethanol, 5% glycerin, 5% 1,3-butylene glycol, 83% deionized water): -
- turbidity ([2]; 0.2% surfactin sodium salt, sodium edetate 1%, calcium 1 ppm, solvent 7% Ethanol, 5% glycerin, 5% 1,3-butylene glycol, 83% deionized water): -
- turbidity ([2]; 0.2% surfactin sodium salt, sodium edetate 1%, calcium 10 ppm, solvent 7% Ethanol, 5% glycerin, 5% 1,3-butylene glycol, 83% deionized water): -
- turbidity ([2]; 0.2% surfactin sodium salt, sodium edetate 3%, calcium 0.1 ppm, solvent 7% Ethanol, 5% glycerin, 5% 1,3-butylene glycol, 83% deionized water): -
- turbidity ([2]; 0.2% surfactin sodium salt, sodium edetate 3%, calcium 1 ppm, solvent 7% Ethanol, 5% glycerin, 5% 1,3-butylene glycol, 83% deionized water): -
- turbidity ([2]; 0.2% surfactin sodium salt, sodium edetate 3%, calcium 10 ppm, solvent 7% Ethanol, 5% glycerin, 5% 1,3-butylene glycol, 83% deionized water): -
- turbidity ([2]; Surfactin 0.2% in Solvent 1 (deionized water), calcium 0 ppm): -
- turbidity ([2]; Surfactin 0.2% in Solvent 1 (deionized water), calcium 10 ppm): +
- turbidity ([2]; Surfactin 0.2% in Solvent 1 (deionized water), calcium 20 ppm): +
- turbidity ([2]; Surfactin 0.2% in Solvent 2 (7% Ethanol, 93% deionized water), calcium 0 ppm): -
- turbidity ([2]; Surfactin 0.2% in Solvent 2 (7% Ethanol, 93% deionized water), calcium 10 ppm): +
- turbidity ([2]; Surfactin 0.2% in Solvent 2 (7% Ethanol, 93% deionized water), calcium 20 ppm): +
- turbidity ([2]; Surfactin 0.2% in Solvent 3 (7% Ethanol, 5% glycerin, 5% 1,3-butylene glycol, 83% deionized water), calcium 0 ppm): -
- turbidity ([2]; Surfactin 0.2% in Solvent 3 (7% Ethanol, 5% glycerin, 5% 1,3-butylene glycol, 83% deionized water), calcium 10 ppm): +
- turbidity ([2]; Surfactin 0.2% in Solvent 3 (7% Ethanol, 5% glycerin, 5% 1,3-butylene glycol, 83% deionized water), calcium 20 ppm): +
- Concentration of surfactant at 50% cytotoxicity [3]: 24.4%
- Surface Tension [4]: 27.6 mN/m

— patent EP1082099B1, “SURFACTANT FOR USE IN EXTERNAL PREPARATIONS FOR SKIN AND EXTERNAL PREPARATION FOR SKIN CONTAINING THE SAME” (Showa Denko K K, priority 1998, dated 1999)
